One block for each molecule: values may come before it. d = 2'-deoxy (DNA); r = 2'-OH (RNA)
Tests used:
[1] = tested on: PTPRD 3′UTR; assay: dual-luciferase 3′UTR reporter assay, pAC-PTPRD; assay type: cell-based; conditions: luciferase reporter with PTPRD 3′UTR, human Hela cell lines; average of at least two independent experiments
Description: (§1) In order to determine whether the target genes identified in Example 7 are in actuality targets of miR-8 and miR-200 family miRNAs, the inventors performed cloning. In other words, […] containing the miRNA target sites. Specifically, in order to obtain cDNAs of respective target genes, from drosophila S2 cell lines or human Hela cell lines, total RNA was extracted by using RNeasy mini kit (QIAGEN, US). 1 μg of total RNA and 1 μl of Oligo-dT (Invitrogen, US) were charged with up to 50 μl of distilled water, and placed into SuperScript First-Strand Synthesis System (Invitrogen, US), followed by RT-PCR reaction. Through the reaction at 65° C. for 6 min, at 4° C. for 5 min, at 42° C. for 60 min, at 95° C. for 5 min, and at 4° C. for 5 min, cDNA was synthesized. By using the cDNA (3˜5 μg) as template, and using a primer pair on respective genes noted in Table 3 and PCR Mastermix (Promega, US), PCR was performed on 3′UTR of ush, Lap1, CG8445, dbo, Lar, Ced-12, CG12333, cbt, FOG2, SEPT7, RIN2, SHC1, HOXB5, LF11, TCF7L1, ERBB21P, ELMO2, BAP1, WDR37, KLHL20, PTPRD, RASSF2 and VAC14 from among the target genes selected in Example 7. Herein, PCRP on atro as a drosophila control gene was also performed. After the reaction was completed, the PCR product on each gene's 3′UTR region was cleaved by each of the following restriction enzymes:
(§2) Then, it was cloned into pAC5.1 luciferase vector (a kind gift of Elisa Izaurralde) cleaved by the same restriction enzymes so as to produce a reporter plasmid having a miR-8 or miR-200 family target sequence in luciferase gene's 3′UTR sequence.
(§3) Reporter plasmids and renilla luciferase expression vectors (Promega, US), as noted in Table 4, and miRNAs of miR-200 family of miR-141, miR-200a (hsa-miR-200a, SEQ ID: 87: 5′-[…]-3′), miR-200b, miR-200c (has-miR-200c, SEQ ID: 88: 5′-[…]-3′) and miR-429, and miR-8 (dme-miR-8, SEQ ID: 89: 5′-[…]-3′) were bought from Samchonri and cotransfected into drosophila S2 cell lines or human Hela cell lines. Then, the activities of luciferase were measured through dual-luciferase assay (Promega, US) by a luminometer (Biorad). Then, 7 gene pairs that respond both to miR-8 and to mir-200 family miRNAs in Drosophila and human cells, respectively were identified (see FIG. 15).

[2] = tested on: ELMO2 3′UTR; assay: dual-luciferase 3′UTR reporter assay, pAC-ELMO2; assay type: cell-based; conditions: luciferase reporter with ELMO2 3′UTR, human Hela cell lines; average of at least two independent experiments
Description: as §1, §2, §3

[3] = tested on: VAC14 3′UTR; assay: dual-luciferase 3′UTR reporter assay, pAC-VAC14; assay type: cell-based; conditions: luciferase reporter with VAC14 3′UTR, human Hela cell lines; average of at least two independent experiments
Description: as §1, §2, §3

[4] = tested on: TCF7L1 3′UTR; assay: dual-luciferase 3′UTR reporter assay, pAC-TCF7L1; assay type: cell-based; conditions: luciferase reporter with TCF7L1 3′UTR, human Hela cell lines; average of at least two independent experiments
Description: as §1, §2, §3

[5] = tested on: KLHL20 3′UTR; assay: dual-luciferase 3′UTR reporter assay, pAC-KLHL20; assay type: cell-based; conditions: luciferase reporter with KLHL20 3′UTR, human Hela cell lines; average of at least two independent experiments
Description: as §1, §2, §3

[6] = tested on: BAP1 3′UTR; assay: dual-luciferase 3′UTR reporter assay, pAC-BAP1; assay type: cell-based; conditions: luciferase reporter with BAP1 3′UTR, human Hela cell lines; average of at least two independent experiments
Description: as §1, §2, §3

[7] = tested on: ERBB2IP 3′UTR; assay: dual-luciferase 3′UTR reporter assay, pAC-ERBB2IP; assay type: cell-based; conditions: luciferase reporter with ERBB2IP 3′UTR, human Hela cell lines; average of at least two independent experiments
Description: as §1, §2, §3

[8] = tested on: Hep3B cells; assay: MTT cellular viability assay; assay type: cell-based, human; conditions: Hep3B cells transfected with 30 nM
Description: Because stimulation of PI3K and Akt is known to facilitate cell proliferation and antagonize apoptosis (Pollak, 2008), the inventors measured cellular viability with the MTT (3-(4,5-dimethylthiazol-2-yl)-2,5-diphenyltetrazolium bromide) assay in Hep3B cells. Specifically, Hep3B cells were plated in a 96-well plate, and transfected with 30 nM of synthesized siGFP, miR-141, miR-200a, miR-200b, miR-200c, miR-429 or siFOG2. Then, to the plate, 50 μl of MTT solution (2 mg/ml) (Promega, US) was added per each well, followed by culturing at 37 °C for 1 hour. Then, each well was added with 150 μl of DMSO, and measured by a microplate reader (Bio-rad, US) at a wavelength of 590 nm. Also, Hep3B cells were transfected with 200 nM of luciferase, or 200 nM of oligonucleotides having complementary sequences to miR-141, miR-200a, miR-200b, miR-200c or miR-429, and then were subjected to MTT assay in the same manner as described above.

[9] = tested on: KLF11 3′UTR; assay: dual-luciferase 3′UTR reporter assay, pAC-KLF11; assay type: cell-based; conditions: luciferase reporter with KLF11 3′UTR, human Hela cell lines; average of at least two independent experiments
Description: as §1, §2, §3

[10] = tested on: FOXO; assay: FOXO luciferase reporter (pFK1tk-luc) assay in Hep3B cells; assay type: cell-based, human
Text: The inventors analyzed the effect of miR-200 miRNAs on the downstream transducers of Akt (see FIGS. 44 to 47). Because Akt represses FOXO activity, the inventors used a luciferase reporter plasmid (pFK1tk-luc) (Biggs, W H et al., 1999, Proc Natl Acad Sci USA 96, 7421-7426) containing eight FOXO-binding sites to determine the level of FOXO activity in cultured cells. Specifically, Hep3B cells were transfected with synthesized siGFP, miR-141, miR-200a, miR-200b, miR-200c, miR-429 or siFOG2 together with pFK1tk-luc vector, and then luciferase activity was measured in the same manner as described Example 8-2. Also, Hep3B cells were transfected with luciferase, or oligonucleotides having complementary sequence to miR-141, miR-200a, miR-200b, miR-200c or miR-429 together with pFK1tk-luc vector. Then, the luciferase activity was measured in the same manner as described above. Further, Hep3B cell lines were transfected with pCK-flag (empty vector) and pCK-FOG2 produced in Example 16-1, and the luciferase activity was measured in the same manner as described above. […] Further, treating the cells with miR-200 inhibitors elevated FOXO activity (see FIG. 46).

[11] = tested on: WDR37 3′UTR; assay: dual-luciferase 3′UTR reporter assay, pAC-WDR37; assay type: cell-based; conditions: luciferase reporter with WDR37 3′UTR, human Hela cell lines; average of at least two independent experiments
Description: as §1, §2, §3

[12] = tested on: RIN2 3′UTR; assay: dual-luciferase 3′UTR reporter assay, pAC-RIN2; assay type: cell-based; conditions: luciferase reporter with RIN2 3′UTR, human Hela cell lines; average of at least two independent experiments
Description: as §1, §2, §3

[13] = tested on: SEPT7 3′UTR; assay: dual-luciferase 3′UTR reporter assay, pAC-SEPT7; assay type: cell-based; conditions: luciferase reporter with SEPT7 3′UTR, human Hela cell lines; average of at least two independent experiments
Description: as §1, §2, §3

[14] = tested on: FOG2 3′UTR; assay: dual-luciferase 3′UTR reporter assay, pAC-FOG2; assay type: cell-based; conditions: luciferase reporter with FOG2 3′UTR, human Hela cell lines; average of at least two independent experiments
Description: as §1, §2, §3

[15] = tested on: SHC1 3′UTR; assay: dual-luciferase 3′UTR reporter assay, pAC-SHC1; assay type: cell-based; conditions: luciferase reporter with SHC1 3′UTR, human Hela cell lines; average of at least two independent experiments
Description: as §1, §2, §3

[16] = tested on: RASSF2 3′UTR; assay: dual-luciferase 3′UTR reporter assay, pAC-RASSF2; assay type: cell-based; conditions: luciferase reporter with RASSF2 3′UTR, human Hela cell lines; average of at least two independent experiments
Description: as §1, §2, §3

[17] = tested on: HOXB5 3′UTR; assay: dual-luciferase 3′UTR reporter assay, pAC-HOXB5; assay type: cell-based; conditions: luciferase reporter with HOXB5 3′UTR, human Hela cell lines; average of at least two independent experiments
Description: as §1, §2, §3

[18] = tested on: Akt; assay: western blotting of p-Akt in FAO cell lines; assay type: cell-based; conditions: compared to siGFP
[19] = tested on: FOXO; assay: FOXO activity in Huh7 cell lines transfected with miR-200 and treated with kinase inhibitors; assay type: cell-based, human; conditions: Huh7 cell lines transfected with miR-141/200a or miR-200b/c/429, inhibitor at 10 μM
[20] = biological target: T1, p85α (Homo sapiens, UniProt P27986); assay: in vitro binding assay with GST-fused recombinant p85α; conditions: purified GST-fused recombinant p85α protein
T1 construct: GST (N); made in house; host or cells: E. coli BL21
Text: In order to test whether FOG2 directly binds to p85α, the inventors cleaved PCR product on p85α gene (obtained from Example 20-1) by BamHI and EcoRI, and cloned into pGEX5X-1 vector (GE Healthcare, US) cleaved by the same restriction enzymes so as to produce GST-fused recombinant p85α expression vector. The expression vector was transfected into BL21 (Promega, US) through electroporation, and according to a known method, the […] protein was expressed and purified from bacteria (Studier, F. W. et al., 1986, J. Mol. Biol. 189, 113-130), and was used in the following in vitro binding assay, along with purified GST-fused recombinant p85α protein.

[21] = biological target: T2, PI3K (Homo sapiens, UniProt P27986); assay: in vitro PI3K assay on immunoprecipitated PI3K complex; assay type: biochemical; conditions: recombinant protein added to the immunoprecipitated PI3K complex
T2 construct: endogenous in cells; host or cells: Hep3B cell lysate (method paragraph)
T2 sequence (P27986 whole entry): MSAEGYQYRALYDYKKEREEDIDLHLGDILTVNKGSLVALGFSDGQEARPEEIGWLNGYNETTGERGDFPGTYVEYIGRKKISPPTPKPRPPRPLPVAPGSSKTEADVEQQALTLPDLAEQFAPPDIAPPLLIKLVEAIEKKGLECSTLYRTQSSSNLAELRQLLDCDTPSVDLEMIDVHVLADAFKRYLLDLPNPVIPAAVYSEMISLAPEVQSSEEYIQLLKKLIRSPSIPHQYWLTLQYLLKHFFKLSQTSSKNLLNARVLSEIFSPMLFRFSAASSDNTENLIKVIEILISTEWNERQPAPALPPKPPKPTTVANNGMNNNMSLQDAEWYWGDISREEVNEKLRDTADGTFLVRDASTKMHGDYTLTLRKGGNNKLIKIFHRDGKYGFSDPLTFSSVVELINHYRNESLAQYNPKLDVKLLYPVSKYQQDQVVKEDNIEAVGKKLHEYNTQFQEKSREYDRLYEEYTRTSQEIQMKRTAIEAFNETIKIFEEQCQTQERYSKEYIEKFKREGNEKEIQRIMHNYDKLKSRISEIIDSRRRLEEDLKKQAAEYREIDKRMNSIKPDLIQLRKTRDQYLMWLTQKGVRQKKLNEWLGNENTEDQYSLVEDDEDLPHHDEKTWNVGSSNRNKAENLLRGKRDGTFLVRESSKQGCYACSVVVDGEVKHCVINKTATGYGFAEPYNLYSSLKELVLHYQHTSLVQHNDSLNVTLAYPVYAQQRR

T1 sequence (P27986 whole entry, the tested form may be a part): as the sequence (P27986 whole entry) above

Represion fold, PTPRD [1]: 0.97 fold | Represion fold, ELMO2 [2]: 0.86 fold | Represion fold, VAC14 [3]: 1.20 fold | Represion fold, TCF7L1 [4]: 0.80 fold | Represion fold, KLHL20 [5]: 0.69 fold | Represion fold, BAP1 [6]: 0.74 fold | Represion fold, ERBB2IP [7]: 0.59 fold | Represion fold, KLF11 [9]: 1.07 fold | Represion fold, WDR37 [11]: 1.21 fold | Represion fold, RIN2 [12]: 1.30 fold | Represion fold, SEPT7 [13]: 1.29 fold | Represion fold, FOG2 [14]: 0.32 fold | Represion fold, SHC1 [15]: 1.85 fold | Represion fold, RASSF2 [16]: 0.99 fold | Represion fold, HOXB5 [17]: 0.87 fold
Molecule: 5′-UAAUACUGCCGGGUAAUGAUGGA-3′ [miR-200c]
cell viability (MTT) [8]: increased cell viability | FOXO activity (activity of luciferase, pFK1tk-luc) [10]: significantly repressed

Molecule: 5′-UUAUUCAAGUCCAUCUUCCdTdT-3′ (UUAUUCAAGUCCAUCUUCCTT; siRNA; sugars from the 5' end r19 d2, backbone not given here) [siFOG2]
FOXO activity (activity of luciferase, pFK1tk-luc) [10]: significantly repressed | p-Akt levels [18]: increased p-Akt levels

Molecule: O=C1c2ccccc2-c2n[nH]c3cccc1c23 [SB600125]
miR-200-mediated FOXO regulation (FOXO activity) [19]: did not affect miR-200-mediated FOXO regulation

Molecule: N#CC(=C(/N)Sc1ccccc1N)/C(C#N)=C(\N)Sc1ccccc1N [U0126]
miR-200-mediated FOXO regulation (FOXO activity) [19]: did not affect miR-200-mediated FOXO regulation

binding to recombinant p85α [20]: specifically bound to recombinant p85α
B1: recombinant FOG2 protein: recombinant FOG2 protein containing the middle region of FOG2 (413-789 aa), expressed and purified from bacteria (protein, UniProt Q8WW38 413-789, looked up, fragment)
chain: DLLTRSELPQSQKAMQTKDASSDTELDKCEKKTQLFLTNQRPEIQPTTNKQSFSYTKIKSEPSSPRLASSPVQPNIGPSFPVGPFLSQFSFPQDITMVPQASEILAKMSELVHRRLRHGSSSYPPVIYSPLMPKGATCFECNITFNNLDNYLVHKKHYCSSRWQQMAKSPEFPSVSEKMPEALSPNTGQTSINLLNPAAHSADPENPLLQTSCINSSTVLDLIGPNGKGHDKDFSTQTKKLSTSSNNDDKINGKPVDVKNPSVPLVDGESDPNKTTCEACNITFSRHETYMVHKQYYCATRHDPPLKRSASNKVPAMQRTMRTRKRRKMYEMCLPEQEQRPPLVQQRFLDVANLNNPCTSTQEPTEGLGECYHPRCD
PI3K activity [21]: significantly inhibited the PI3K activity
